Patent US8017633B2, “Roflumilast for the treatment of diabetes mellitus” (Nycomed GmbH, priority 2005, dated 2011)

What was measured:
C57BLKS db/db mice [1] = test: Daily water intake of db/db mice during once-daily oral treatment; format: in vivo, mouse
Description: (§1) Female C57BLKS db/db mice obtained from M&B A/S (8680 Ry, Denmark) were used in the studies at 10 to 11 weeks of age. Mice were housed 10 per cage and allowed free access to water and standard laboratory diet for rodents (chow 3433, Provimi Kliba SA, 4303 Kaiseraugst, Switzerland).
(§2) Mice were treated with vehicle, Roflumilast or Roflumilast-N-Oxide, respectively once daily in the morning. Roflumilast or Roflumilast-N-Oxide was suspended in 4% methocel and applied via oral gavage using oral feeding & dosing needles (outer diameter: 1.5 mm, TSE GmbH, 61350 Bad Homburg, Germany). A volume of 10 ml/kg body weight was administered for each dose.
The daily intake of food (chow 3433) and water was measured per animal (total daily intake of food divided by the number of animals) before and during the treatment with Roflumilast or Roflumilast-N-Oxide.

C57BLKS db/db mice [2] = test: 10 days study: fasting blood glucose and oral glucose tolerance in db/db mice; format: in vivo, mouse; conditions: for Blood glucose (15 min after glucose application) / Blood glucose (before glucose application): fasted 24 h; for Blood glucose (15 min after glucose application): 15 min after oral 1 g/kg glucose; for Blood glucose (before glucose application): 1 h after dose
Description: as §1
Mice were allowed to acclimate to the local animal facilities for 1 week and retro-orbital blood samples were obtained 3 to 7 days prior to the start of the study.
as §2
10 days studies: Mice were treated with vehicle, Roflumilast or Roflumilast-N-Oxide once daily in the morning. On day 9, mice were fasted for 24 hours by removing standard diet for laboratory animals 1 hour after drug application. On day 10, one hour after administration of vehicle, Roflumilast or Roflumilast-N-Oxide glucose tolerance was assessed by oral application of 1 g/kg/10 ml glucose. Blood was sampled before and 15 minutes after glucose application and levels of glucose (accu-chek, Roche Diagnostics GmbH, 68298 Mannheim, Germany) were measured.

[3] = Rof-N-Oxide 1 mg/kg oral once daily 10 days
[4] = Rof-N-Oxide 3 mg/kg oral once daily 10 days
[5] = Rof-N-Oxide 10 mg/kg oral once daily 10 days
[6] = Rof-N-Oxide 30 mg/kg oral once daily 10 days

O=C(Nc1c(Cl)c[n+]([O-])cc1Cl)c1ccc(OC(F)F)c(OCC2CC2)c1 [Rof-N-Oxide, 3-cyclopropylmethoxy-4-difluoromethoxy-N-(3,5-dichloro-1-oxido-pyridin-4-yl)benzamide]
Daily water intake before the first application (C57BLKS db/db mice [1]; 1 mg/kg group, Day −4, before first application): 9.4 g per mouse | Daily water intake before the first application (C57BLKS db/db mice [1]; 1 mg/kg group, Day −5, before first application): 9.2 g per mouse | Daily water intake on the days of application (C57BLKS db/db mice [1]; 1 mg/kg oral once daily, Day 1): 7.6 g per mouse | Daily water intake on the days of application (C57BLKS db/db mice [1]; 1 mg/kg oral once daily, Day 2): 6.9 g per mouse | Daily water intake on the days of application (C57BLKS db/db mice [1]; 1 mg/kg oral once daily, Day 4): 7.1 g per mouse | Daily water intake on the days of application (C57BLKS db/db mice [1]; 1 mg/kg oral once daily, Day 5): 8.0 g per mouse | Daily water intake on the days of application (C57BLKS db/db mice [1]; 1 mg/kg oral once daily, Day 6): 7.7 g per mouse | Daily water intake on the days of application (C57BLKS db/db mice [1]; 1 mg/kg oral once daily, Day 7): 8.5 g per mouse | Daily water intake on the days of application (C57BLKS db/db mice [1]; 1 mg/kg oral once daily, Day 8): 7.2 g per mouse | Daily water intake before the first application (C57BLKS db/db mice [1]; 3 mg/kg group, Day −1, before first application): 9.1 g per mouse | Daily water intake before the first application (C57BLKS db/db mice [1]; 3 mg/kg group, Day −2, before first application): 7.6 g per mouse | Daily water intake before the first application (C57BLKS db/db mice [1]; 3 mg/kg group, Day −3, before first application): 7.6 g per mouse | Daily water intake before the first application (C57BLKS db/db mice [1]; 3 mg/kg group, Day −4, before first application): 4.3 g per mouse | Daily water intake before the first application (C57BLKS db/db mice [1]; 3 mg/kg group, Day −5, before first application): 9.8 g per mouse | Daily water intake on the days of application (C57BLKS db/db mice [1]; 3 mg/kg oral once daily, Day 1): 5.1 g per mouse | Daily water intake on the days of application (C57BLKS db/db mice [1]; 3 mg/kg oral once daily, Day 2): 5.9 g per mouse | Daily water intake on the days of application (C57BLKS db/db mice [1]; 3 mg/kg oral once daily, Day 4): 5.9 g per mouse | Daily water intake on the days of application (C57BLKS db/db mice [1]; 3 mg/kg oral once daily, Day 5): 5.7 g per mouse | Daily water intake on the days of application (C57BLKS db/db mice [1]; 3 mg/kg oral once daily, Day 6): 5.4 g per mouse | Daily water intake on the days of application (C57BLKS db/db mice [1]; 3 mg/kg oral once daily, Day 7): 5.4 g per mouse | Daily water intake on the days of application (C57BLKS db/db mice [1]; 3 mg/kg oral once daily, Day 8): 5.2 g per mouse | Daily water intake before the first application (C57BLKS db/db mice [1]; 10 mg/kg group, Day −1, before first application): 9.6 g per mouse | Daily water intake before the first application (C57BLKS db/db mice [1]; 10 mg/kg group, Day −2, before first application): 8.2 g per mouse | Daily water intake before the first application (C57BLKS db/db mice [1]; 10 mg/kg group, Day −3, before first application): 7.9 g per mouse | Daily water intake before the first application (C57BLKS db/db mice [1]; 10 mg/kg group, Day −4, before first application): 9.6 g per mouse | Daily water intake before the first application (C57BLKS db/db mice [1]; 10 mg/kg group, Day −5, before first application): 12.1 g per mouse | Daily water intake on the days of application (C57BLKS db/db mice [1]; 10 mg/kg oral once daily, Day 1): 2.9 g per mouse | Daily water intake on the days of application (C57BLKS db/db mice [1]; 10 mg/kg oral once daily, Day 2): 3.5 g per mouse | Daily water intake on the days of application (C57BLKS db/db mice [1]; 10 mg/kg oral once daily, Day 4): 3.2 g per mouse | Daily water intake on the days of application (C57BLKS db/db mice [1]; 10 mg/kg oral once daily, Day 5): 3.7 g per mouse | Daily water intake on the days of application (C57BLKS db/db mice [1]; 10 mg/kg oral once daily, Day 6): 3.3 g per mouse | Daily water intake on the days of application (C57BLKS db/db mice [1]; 10 mg/kg oral once daily, Day 7): 3.0 g per mouse | Daily water intake on the days of application (C57BLKS db/db mice [1]; 10 mg/kg oral once daily, Day 8): 4.1 g per mouse | Daily water intake before the first application (C57BLKS db/db mice [1]; 30 mg/kg group, Day −1, before first application): 10.1 g per mouse | Daily water intake before the first application (C57BLKS db/db mice [1]; 30 mg/kg group, Day −2, before first application): 9.4 g per mouse | Daily water intake before the first application (C57BLKS db/db mice [1]; 30 mg/kg group, Day −3, before first application): 10.0 g per mouse | Daily water intake before the first application (C57BLKS db/db mice [1]; 30 mg/kg group, Day −4, before first application): 12.4 g per mouse | Daily water intake before the first application (C57BLKS db/db mice [1]; 30 mg/kg group, Day −5, before first application): 10.1 g per mouse | Daily water intake on the days of application (C57BLKS db/db mice [1]; 30 mg/kg oral once daily, Day 1): 2.3 g per mouse | Daily water intake on the days of application (C57BLKS db/db mice [1]; 30 mg/kg oral once daily, Day 2): 2.4 g per mouse | Daily water intake on the days of application (C57BLKS db/db mice [1]; 30 mg/kg oral once daily, Day 4): 2.6 g per mouse | Daily water intake on the days of application (C57BLKS db/db mice [1]; 30 mg/kg oral once daily, Day 5): 3.0 g per mouse | Daily water intake on the days of application (C57BLKS db/db mice [1]; 30 mg/kg oral once daily, Day 6): 2.9 g per mouse | Daily water intake on the days of application (C57BLKS db/db mice [1]; 30 mg/kg oral once daily, Day 7): 3.3 g per mouse | Daily water intake on the days of application (C57BLKS db/db mice [1]; 30 mg/kg oral once daily, Day 8): 2.5 g per mouse | Effect on increased daily water intake (summary in words) (C57BLKS db/db mice [1]; db/db mice, treatment once daily oral): reduced | Blood glucose (15 min after glucose application) (C57BLKS db/db mice [2]; [3]): 595 mg/dL | Blood glucose (before glucose application) (C57BLKS db/db mice [2]; [3]): 220 mg/dL | Blood glucose (15 min after glucose application) (C57BLKS db/db mice [2]; [4]): 467 mg/dL | Blood glucose (before glucose application) (C57BLKS db/db mice [2]; [4]): 174 mg/dL | Blood glucose (15 min after glucose application) (C57BLKS db/db mice [2]; [5]): 423 mg/dL | Blood glucose (before glucose application) (C57BLKS db/db mice [2]; [5]): 139 mg/dL | Blood glucose (15 min after glucose application) (C57BLKS db/db mice [2]; [6]): 326 mg/dL | Blood glucose (before glucose application) (C57BLKS db/db mice [2]; [6]): 146 mg/dL | Effect on fasting blood glucose levels (summary in words) (C57BLKS db/db mice [2]; db/db mice): reduce | Effect on postprandial blood glucose levels (summary in words) (C57BLKS db/db mice [2]; db/db mice): reduce
